Read-outs that look alike come from different tables or passages of the source. Numbered stars: 1 amine (or outer) side, 2 acyl side, 3 side chain; on linkers, the order of the positions; unused ones are H or OH. Square brackets hold non-standard residues; d marks the D form. Side chains are listed from the residue outwards. Peptide text beside a SMILES is read from it. * marks the point of attachment. ξ: configuration not given here. C20 diacid = O=C(O)CCCCCCCCCCCCCCCCCCC(=O)*; γGlu = O=C(O)[C@H](CCC(=O)[*:2])N[*:1]; AEEA = NCCOCCOCC(=O)O; Aib = CC(C)(N)C(=O)O; ξP = O=C(O)C1CCCN1
How the values were obtained:
[1] = Pharmacokinetic study in cynomolgus monkeys after single subcutaneous or intravenous injection; type: in vivo
Protocol: The administration doses for 4 groups, i.e., intravenous injection group, low-dose subcutaneous injection group, medium-dose subcutaneous group and high-dose subcutaneous injection group, were 0.1, 0.03, 0.1, and 0.3 mg/kg, respectively, all by single administration.

[2] = acids, alkalis, oxidation or high temperature
[3] = Influencing factor test of the bulk drug; type: physicochemical; conditions: high temperature or illumination

With `CC[C@H](C)[C@H](NC(=O)[C@H](CCCCN)NC(=O)[C@H](CCC(=O)O)NC(=O)[C@H](CC(C)C)NC(=O)[C@H](Cc1ccc(O)cc1)NC(=O)[C@@H](NC(=O)[C@H](CO)NC(=O)[C@H](Cc1ccc(O)cc1)NC(=O)[C@H](CC(=O)O)NC(=O)[C@H](CO)NC(=O)[C@@H](NC(=O)[C@H](Cc1ccccc1)NC(=O)[C@@H](NC(=O)CNC(=O)[C@H](CCC(=O)O)NC(=O)C(C)(C)NC(=O)[C@@H](N)Cc1ccc(O)cc1)[C@@H](C)O)[C@@H](C)O)[C@@H](C)CC)C(=O)N[C@@H](C)C(=O)N[C@@H](C)C(=O)N[C@@H](CCC(N)=O)C(=O)N[C@@H](CCC(=O)O)C(=O)N[C@@H](Cc1ccccc1)C(=O)N[C@H](C(=O)N[C@@H](CC(N)=O)C(=O)N[C@@H](Cc1c[nH]c2ccccc12)C(=O)N[C@@H](CC(C)C)C(=O)N[C@@H](CC(C)C)C(=O)N[C@@H](C)C(=O)NCC(=O)NCC(=O)N1CCCC1C(=O)N[C@@H](CO)C(=O)N[C@@H](CO)C(=O)NCC(=O)N[C@@H](C)C(=O)N1CCC[C@H]1C(=O)N1CCCC1C(=O)N1CCC[C@H]1C(=O)N[C@@H](CO)C(=O)N[C@@H](CCCCNC(=O)COCCOCCNC(=O)COCCOCCNC(=O)CC[C@H](NC(=O)CCCCCCCCCCCCCCCCCCC(=O)O)C(=O)O)C(N)=O)C(C)C` (some centres unmarked) [Active ingredient] (H-Y[Aib]EGTFTSDYSIYLEKIAAQEFVNWLLAGG[ξP]SSGAP[ξP]PSK([AEEA-AEEA-γGlu-C20 diacid])-NH2) the “exposure (AUClast) in animals of different sexes” value [1] was “no statistical difference”, the Vd ([1]; cynomolgus monkey, in vivo, intravenous, 0.1 mg/kg, single, read-out: apparent volume of distribution Vd) was 0.066 to 0.0681 L/kg and the clearance ([1]; cynomolgus monkey, in vivo, intravenous, 0.1 mg/kg, single, read-out: clearance CL) was 21.4 to 22.3 mL/day/kg. For the same compound, the half-life ([1]; cynomolgus monkey, in vivo, intravenous, 0.1 mg/kg, single, read-out: elimination half-life t1/2) was 50.7 to 51.5 h, the half-life ([1]; cynomolgus monkey, in vivo, sc, single subcutaneous injection, read-out: elimination half-life T1/2) was 48.9 to 65.4 h and the Tmax ([1]; cynomolgus monkey, in vivo, sc, single subcutaneous injection, read-out: time to peak drug concentration Tmax) was 13.3 to 18 h. The “degradation in stressing test” value [2] was “significant degradations” and the “polymer in influencing factor test” value [3] was “polymer growth”.

— patent US20250170218A1, “STABLE PHARMACEUTICAL COMPOSITION OF RECEPTOR AGONIST, AND PREPARATION METHOD AND APPLICATION THEREOF” (JIANGSU HANSOH PHARMACEUTICAL GROUP CO., LTD., priority 2022, published 2025)
